Test results published in patent US8871948B2, “(Aza)indole derivative substituted in position 5, pharmaceutical composition comprising it, intermediate compounds and preparation process therefor” (Aziende Chimiche Riunite Angelini Francesco A.C.R.A.F.S.p.A., priority 2007, dated 2014).

What was measured:
[1] = system: production of PGE2 in human pulmonary adenocarcinoma cell line A549 (mPGES-1); assay: Inhibition of PGE2 production in IL-1β-stimulated A549 cells (EIA); format: cell-based; conditions: for IC50: IL-1β stimulated, read-out: pIC50 PGE2 (converted)
Description: (§1) The test used makes it possible to evaluate the inhibitory capacity of the test compounds on the production of PGE2 and the selectivity relative to the production of PGF2α. The human pulmonary adenocarcinoma cell line A549 was used, which is particularly sensitive to stimulation with proinflammatory cytokines, for instance IL-1β, and, in response to this stimulation, is particularly active in the production and release of two prostanoids: PGE2 and PGF2α (Thoren S. Jakobsson P-J, 2000).
(§2) The cells were stimulated with IL-1β (10 ng/ml) and simultaneously treated with the test compound for 22 hours in a suitable culture medium (DMEM Dulbecco's Modified Eagles Medium) enriched with 5% fetal calf serum and L-glutamine (4 mM final) in an incubator at 37° C. and with a CO2 concentration of 5%.
(§3) At the end of the incubation, the amount of PGE2 and PGF2α produced and released into the supernatant were assayed using an EIA kit (produced and sold by Cayman Chemicals, Ann Arbor, Mich., USA).
(§4) The comparative compound used was indomethacin at a concentration of 10 nM (Sigma-Aldrich), which is a non-steroidal anti-inflammatory drug that inhibits in equal measure both PGE2 and PGF2α.
(§5) For illustrative purposes, Table 3 collates the pIC50 values of a number of compounds of the invention, where pIC50 represents the negative logarithm of the IC50, which, in turn, represents the concentration of compound that inhibits the production of PGE2 or PGF2α by 50% relative to cells that are stimulated but not treated with the same compound.

[2] = system: production of PGF2α in human pulmonary adenocarcinoma cell line A549; assay: Inhibition of PGF2α production in IL-1β-stimulated A549 cells (EIA); format: cell-based; conditions: for IC50: IL-1β stimulated, read-out: pIC50 PGF2α (converted)
Description: as §1, §2, §3, §4, §5

[3] = system: acetic acid-induced stretching in mice; assay: Acetic acid-induced stretching in mice; format: in vivo; conditions: female CD-1 mice; for N° of stretches: 20 minutes after acetic acid; for % inhibition (stretches): vs vehicle (MTC)
Experimental: The test compound was evaluated in the model of acetic acid-induced stretching in mice (Stock J. L. et al., J Clin Inv 2001, 107: 325-331). This test makes it possible to evaluate the antinociceptive activity of the compounds of the invention in a model of inflammatory pain.
Female CD-1 mice weighing 25-30 g were used for the test. […] The control animals were treated with the vehicle alone (MTC) via the same route.
30 minutes after the treatment, the animals received an intraperitoneal injection of acetic acid (0.7 v/v in physiological solution, 16 μl/g of body weight) in order to induce inflammatory pain and to check the effects of the test compound on the nociceptive response.
Immediately after the administration of acetic acid and for the following 20 minutes, the number of stretches, which represents the parameter for evaluation of the nociceptive response, was measured.

[4] = system: production of PGE2 in human lymphoma cell line U-937 (cPGES); assay: Inhibition of PGE2 production in U-937 cells (selectivity between isoforms of PGES); format: cell-based; conditions: basal conditions
Description: The test used makes it possible to evaluate the capacity of the compounds of the invention to inhibit the production of PGE2 in a human lymphoma cell line U-937 that preferentially expresses an enzymatic isoform (cPGES), which is responsible for the production of PGE2 under basal conditions, in the absence of pro-inflammatory stimuli. This enzymatic form is different from the one predominantly expressed in the A549 cells (mPGES-1) after a pro-inflammatory stimulus.
The absence of inhibitory activity on PGE2 in this cell model ensures the selectivity of the compound compared with the enzymatic form responsible for the production of PGE2 in the presence of inflammatory stimuli.
The reference compound used was indomethacin at a concentration of 10 nM.

[5] = 10 nM, IL-1β 10 ng/ml, 22 hours

| SMILES | inhibition at 10 µM ([1]; IL-1β 10 ng/ml, 22 hours) | inhibition at 10 µM ([2]; IL-1β 10 ng/ml, 22 hours) | IC50 [1] | other results |
| --- | --- | --- | --- | --- |
| CCn1c(-c2ccc(C)cc2)cc2cc(NC(=O)c3ccccc3Cl)cnc21 [Compound 1] | 59% | < 20% |  |  |
| CCOC(=O)CCCn1c(-c2ccccc2)cc2cc(NC(=O)c3ccccc3Cl)ccc21 [Compound 7] | 76% | < 20% | 3.98 µM |  |
| CCn1c(C2CCCCC2)cc2cc(NC(=O)c3ccccc3Cl)ccc21 [Compound 10] | 78% | < 20% | 1.58 µM | N° of stretches ([3]; 0.01 mg/kg intraperitoneally): 47 ± 4.3; % inhibition (stretches) ([3]; 0.01 mg/kg intraperitoneally): 5.9 ± 8.76%; N° of stretches ([3]; 0.1 mg/kg intraperitoneally): 34 ± 3.2; % inhibition (stretches) ([3]; 0.1 mg/kg intraperitoneally): 33.2 ± 6.16%; N° of stretches ([3]; 1 mg/kg intraperitoneally): 33 ± 3.9; % inhibition (stretches) ([3]; 1 mg/kg intraperitoneally): 33.6 ± 8.04%; N° of stretches ([3]; 10 mg/kg intraperitoneally): 21 ± 3.2; % inhibition (stretches) ([3]; 10 mg/kg intraperitoneally): 57.5 ± 6.57%; inhibition at 10 µM [4]: < 20% |
| COCCn1c(-c2ccccc2)cc2cc(NC(=O)c3ccccc3Cl)ccc21 [Compound 12] | 78% | < 20% | 3.16 µM | inhibition at 10 µM [4]: < 20% |
| CC(=O)OCCCn1c(-c2ccccc2)cc2cc(NC(=O)c3ccccc3Cl)ccc21 [Compound 13] | 61% | < 20% | 7.94 µM | inhibition at 10 µM [4]: < 20% |
| CS(=O)(=O)n1c(CCc2ccccc2)cc2cc(NC(=O)c3ccccc3Cl)ccc21 [Compound 21] | 69% | < 20% | 0.501 µM |  |
| CS(=O)(=O)n1c(-c2cccc(C(F)(F)F)c2)cc2cc(NC(=O)c3ccccc3Cl)ccc21 [Compound 22] | 94% | 44% | 1.58 µM | inhibition at 10 µM [4]: < 20%; IC50 [2]: 25.1 µM |
| CCn1c(CCc2ccccc2)cc2cc(NC(=O)c3ccccc3Cl)ccc21 [Compound 33] | 41% | < 20% |  |  |
| CCn1c(Cc2ccccc2)cc2cc(NC(=O)c3ccccc3Cl)ccc21 [Compound 34] | 83% | 44% | 2.51 µM |  |
| O=C(Nc1ccc2c(c1)cc(C(=O)Nc1ccccc1)n2CCCO)c1ccccc1C(F)(F)F [Compound 35] | 88% | 13% | 2.51 µM | IC50 [2]: 31.6 µM |
| O=C(Nc1ccc2c(c1)cc(-c1ccc(F)cc1)n2CCO)c1c(Cl)cccc1Cl [Compound 36] | 40% | < 20% | 50.1 µM |  |
| O=C(Nc1ccc2c(c1)cc(-c1ccc(Cl)cc1)n2CCO)c1ccc(F)cc1C(F)(F)F [Compound 37] | 73% | < 20% | 6.31 µM |  |
| O=C(Nc1ccc2c(c1)cc(-c1ccc(F)cc1)n2CCO)c1c(F)cccc1C(F)(F)F [Compound 38] | 42% | < 20% | 25.1 µM |  |
| COc1ccc2c(c1)c(CC(=O)O)c(C)n2C(=O)c1ccc(Cl)cc1 [Indomethacin, indomethacin, reference compound] |  |  | 0.00501 µM | inhibition at 0.01 µM [1, 5]: 100%; inhibition at 0.01 µM ([4]; 10 nM): 100%; inhibition at 0.01 µM [2, 5]: 100%; IC50 [2]: 0.00251 µM |
